Read-outs that look alike come from different tables or passages of the source.
How the values were obtained:
[1] = tested on: hepatocyte in primary culture of an adult male Xenopus laevis; format: cell-based
Description: Furthermore, by use of the assay system, the antagonist activity of a target substance could be evaluated.

[2] = tested on: adult male Xenopus laevis; test: Exposure in water of adult male Xenopus laevis; vitellogenin quantified by ELISA sandwich method; format: in vivo
Description: Adult male Xenopus laevis of same age (two years and half old) were used. Every five thereof were bred in each of a water bath where one in which in 20 L of dechlorinated tap water E2 dissolved in DMSO was added was filled (experimental group) and a water bath where one in which in 20L of dechlorinated tap water the same amount of DMSO that is a solvent was added is filled (comparative group). Exposure concentrations of the E2 were five levels of 0.1 nM, 1 nM, 10 nM, 100 nM and 1000 nM, and, at 3.5 days during a breeding period of 7 days, the breeding water was once exchanged. A water temperature was set at 22 degrees centigrade, bright and dark periods each were set at 12 hr, and during a test period bait was not fed.
At the detection of the vitellogenin, two samples of a blood serum and a liver homogenate were used and compared to study.
A. Sampling of Blood Serum
1. To an abdominal cavity of a frog, 0.5 to 1.0 ml of an anesthetic agent (20 mg/ml aminobenzoic acid ethyl ester) was injected.
2. An operation was performed, and 0.2 ml of blood was sampled from a pulsating heart with a syringe in a tube and placed on ice.
3. A centrifugal process was applied at 15000 rpm, at 4 degrees centigrade for 10 min, followed by sampling a supernatant.
4. Dilution was applied at a factor of 10 with a 20 mM of an EDTA-0.2 percent Tween 20-PBS solution followed by refrigerating and preserving (in the case of long preservation, by freezing and preserving).
The diluted sample was quantified of the vitellogenin according to the ELISA sandwich method.
1. After the sampling of blood, a liver piece was cut to substantially 0.05 to 0.1 g followed by weighing.
2. In a tube where the liver piece put, 1 ml of 20 mM EDTA-0.5% Tween 20-PBS solution was added.
3. The liver was homogenized over ice.
4. A centrifugal process was applied at 15000 rpm, at 4 degrees centigrade for 10 min, followed by sampling a supernatant, further followed by refrigerating and preserving (in the case of long preservation, by freezing and preserving).
The diluted sample was quantified of the vitellogenin by ELISA sandwich.

[3] = tested on: adult male Xenopus laevis; test: Injection method in adult male Xenopus laevis; vitellogenin quantified by ELISA sandwich method; format: in vivo
Description: Adult male Xenopus laevis same in the age as A were used. Five thereof in which an E2 solution was injected by means of injection (experimental group) and another five thereof in which propylene glycol that was a solvent was injected by use of an injection by substantially 200 μl (comparative group) were bred in a glass water bath filled with 20 L of dechlorinated tap water. Exposure concentrations of E2 were five levels of 0.002 μg/g BW, 0.02 μg/g BW, 0.2 μg/g BW, 2 μg/g BW and 20 μg/g BW, and, during a breeding period of 7 days, reinjection was once (at 3.5 days) applied. A water temperature was set at 22 degrees centigrade, bright and dark periods each were set at 12 hr, and during a test period bait was not fed. At the injection, individual organisms were measured of weight and substantially 200 μl of the E2 solution was injected so as to be a set concentration. At the detection of the vitellogenin, two samples of a blood serum and a liver homogenate were used and compared to study. A. Sampling of Blood Serum 1. To an abdominal cavity of a frog, 0.5 to 1.0 ml of an anesthetic agent (20 mg/ml aminobenzoic acid ethyl ester) was injected. 2. An operation was performed, and 0.2 ml of blood was sampled from a pulsating heart with a syringe in a tube and placed on ice. 3. […] The diluted sample was quantified of the vitellogenin according to the ELISA sandwich method.

[4] = tested on: hepatocyte in primary culture of an adult male Xenopus laevis; test: VTG synthesis induction in primary hepatocyte culture, VTG in culture liquid by ELISA; format: cell-based; conditions: for estrogenic activity detected, equivalent E2 concentration: primary hepatocyte culture
Description: • 10×perfusate (0.14% KCl, 5.5% NaCl, 0.44% pyruvate, 1% glucose, 2.38% HEPES, 5% BSA and 0.2% NaHCO3) • Collagenase perfusate (1×perfusate is controlled to pH 7.2 to 7.5 with phenol red to prepare a solution of 0.1% collagenase. Filtration and sterilization) • Culture liquid (50% L-15, 1 μg/ml insulin, 0.5% glucose and antibiotics) B: Sampling Method of Hepatocyte […] A frog is sterilized in potassium permanganate (5 mg/ml) for 2 hr or more (superficial skin color becomes brown). 2. An anesthetic (20 mg/ml-aminobenzoic acid ethylester) is injected by 0.5 to 1.0 ml to an abdominal cavity. 3. A ventral skin is thoroughly sterilized with a cotton bud wetted with alcohol, followed by operating. 4. A heart is exposed, a syringe is inserted from a cardiac chamber, and a collagenase perfusate is sent in through a hepatic vein by use of a […] pump to perfuse a liver. 5. The liver is taken out and transferred in a beaker, followed by cutting small with a pair of scissors. 6. Transferring into an L-tube together with a small amount of collagenase perfusate. 7. Shaking for 30 to 60 min in an incubator at 24 degrees centigrade. 8. Suspending thoroughly with a pipette, followed by filtering through a nylon mesh. 9. A slight amount of culture liquid is added, followed by centrifuging at 300 rpm for 1 to 2 min. […] A centrifugal supernatant is sucked and removed, followed by centrifuging a culture liquid once more (this operation is repeated twice). 11. […] 12. Seeding every 100 to 300 μl to a microplate (substantially 20,000 pieces/well is better). 13. Cultivating in an incubator at 24 degrees centigrade. […] In the case of the E2 processing, it is known that from the third day on after the processing vitellogenin can be detected in the culture liquid; however, since survived hepatocytes in culture are stable for three weeks, for the test of a substance low in the activity, evaluation is carried out for a longer period. As one of applications of the ELISA KIT, an application to the quantification of VTG concentration in a liquid Xenopus laevis hepatocyte culture was studied as well. […] Of a culture liquid after 6 days from the start of culturing (exchanged on the third day), the quantification of the VTG concentration was carried out with the ELISA KIT. By combining the exposure test to hepatocytes in primary culture and the ELISA, an application to a quantitative screening method of the estrogen activity of various chemicals was studied. […] According to a method similar to (Example 2-2), primary cultured hepatocytes of an adult male Xenopus laevis were prepared, followed by culturing in a culture liquid containing one of the chemicals, and with a culture liquid after 6 days, according to the ELISA, a VTG concentration in the culture liquid was quantified.

Compound: CC(C)(c1ccc(O)cc1)c1ccc(O)cc1 [BPA, bisphenol A]
- antagonist activity on VTG synthesis induction due to 5 nM E2 ([1]; co-culture with 5 nM E2, increasing concentration of added chemical): antagonistic activity was exhibited

Compound: nonylphenol [NP]
- antagonist activity on VTG synthesis induction due to 5 nM E2 [1]: antagonistic activity was exhibited

Compound: C[C@]12CC[C@@H]3c4ccc(O)cc4CC[C@H]3[C@@H]1CC[C@@H]2O [E2, 17β-estradiol]
- E2 concentration at which blood plasma VTG / VTG synthesis induction can be detected with the ELISA KIT ([2]; exposure in water for 7 days, adult male, ELISA KIT): ≥ 1 nM
- vitellogenin response at 100 nM ([2]; exposure in water, 7 days, 100 nM): obviously rose high
- vitellogenin synthesis at 1000 nM ([2]; exposure in water, 7 days, 1000 nM): does not increase
- E2 concentration from which vitellogenin response was observed ([2]; exposure in water, 7 days, adult male): ≥ 10 nM
- concentration range of abrupt rise of vitellogenin ([2]; exposure method in water): 10 to 100 nM
- production quantity of the vitellogenin ([2]; exposure method in water, 100 nM): ~13000 μg/ml
- dose dependence of vitellogenin response [3]: increased dependent on an administered amount
- production quantity of the vitellogenin ([3]; at 73 nM (assumed uniform diffusion in body)): ~14000 μg/ml
- concentration at which vitellogenin synthesis reaches the maximum ([4]; cultivated hepatocyte): lower than 1000 nM
- exposure concentration giving significant concentration-dependent increase in vitellogenin concentration ([4]; hepatocyte in culture, culture liquid, ELISA): ≥ 0.6 nM
- estrogenic activity detected, equivalent E2 concentration ([4]; ELISA KIT): ~0.1 nM
- estrogenic activity detected, equivalent E2 concentration ([4]; ELISA with biotinylated antibody): ~0.03 nM
